28 molecules from PubChem BioAssay (NCI) can be followed below.

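Five concentrations, 48 hours, 96-well plates. TGI: total growth inhibition.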 Where a SMILES comes first, the peptide text is derived from it. The star is where a group is joined. Boc = CC(C)(C)OC(=O)*; OBn = c1ccc(CO*)cc1; Bn = c1ccc(C*)cc1 Bounds are passed on as bounds.

Experiment in all cases: NCI anticancer screen, dose series, 48 h
The subject of experiment [1] is K-562 leukemia.
For experiment [2], the system named is KM12 colon.
The test system of experiment [3] is MDA-N.
In experiment [4] the test system is NCI/ADR-RES ovarian.
Experiment [5] deals with OVCAR-5 ovarian.
The subject of experiment [6] is SNB-19 CNS.
Experiment [7] concerns SR leukemia.
Experiment [8] relates to T-47D breast.
The subject of experiment [9] is TK-10 renal.
Experiment [10] relates to UACC-62 melanoma.

For the molecule `COC(=O)c1c(C)nc(C)c(N=O)c1-c1ccccc1C(F)(F)F`, the TGI in experiment [1] was more than 100 µM; in experiment [2] it was 35.9 µM; in experiment [3] it was 43.6 µM; in [4] it was 44.5 µM; in [5], 51.4 µM; in experiment [6], more than 100 µM. For the same molecule, the TGI in experiment [7] was more than 100 µM; in experiment [8], 39.5 µM; in [9] it was 30 µM; in experiment [10], more than 100 µM.
Regarding `O=C(O)CCCN1CCCCC1`, the TGI in experiment [1], in experiment [2], in experiment [3], in experiment [4], in experiment [5] and in experiment [6] was more than 100 µM in each case. For the same molecule, the TGI in experiment [7], in experiment [8], in experiment [9] and in experiment [10] was more than 100 µM throughout.
Consider `NC(=O)c1cc2ccccc2c(N=Nc2ccccc2)c1O`, for which the TGI in experiment [1], in experiment [2], in [3], in [4], in experiment [5] and in experiment [6] was more than 100 µM throughout. Further, the TGI in experiment [7], in [8], in experiment [9] and in experiment [10] was more than 100 µM throughout.
As for `CCOC(=O)Nc1ccc(S(=O)(=O)Nc2ccc(Br)cc2)cc1`, the TGI in experiment [1] is 34.4 µM; in [2], more than 100 µM; in experiment [3], more than 100 µM; in [4], more than 100 µM; in experiment [5], more than 100 µM; in experiment [6] it was more than 100 µM. For the same molecule, the TGI was 50.4 µM in [7], more than 100 µM in experiment [8], more than 100 µM in [9] and more than 100 µM in experiment [10].
For `C[N+](C)(C)CCCCCc1c2nc(c(CCCCC[N+](C)(C)C)c3ccc([nH]3)c(CCCCC[N+](C)(C)C)c3ccc([nH]3)c(CCCCC[N+](C)(C)C)c3nc1C=C3)C=C2`, the TGI in experiment [1], in experiment [2], in experiment [3], in experiment [4], in experiment [5] and in [6] was more than 100 µM in each case. Further, the TGI in [7], in experiment [8], in [9] and in [10] was more than 100 µM throughout.
Turning to `CC(C)CC(NC(=O)C(Cc1ccccc1)NC(=O)C(COCc1ccccc1)NC(=O)OC(C)(C)C)C(=O)OCc1ccccc1` (stereo not drawn) (Boc-Ser(Bn)-Phe-Leu-OBn; configuration not given here), the TGI in [1] is 45.2 µM; in experiment [3], more than 100 µM; in experiment [4], more than 100 µM; in [5], more than 100 µM; in [6], more than 100 µM; in experiment [7] it was 44.3 µM. For the same molecule, the TGI is more than 100 µM in experiment [8], more than 100 µM in experiment [9] and 33 µM in experiment [10].
Take `CCc1nnc2sc(-c3ccc(-c4ccc(Cl)cc4Cl)o3)nn12`: the TGI in experiment [1], in experiment [2], in experiment [3], in experiment [4], in [5] and in experiment [6] was more than 100 µM throughout. The TGI in experiment [7], in experiment [8] and in [9] was more than 100 µM in each case.
As for `COc1ccc(OC)c2c1C[C@@H]1C(C#N)N3[C@H](Cc4c(OC)ccc(OC)c4[C@@H]3C)C(=O)N1[C@H]2C` (stereo not given in full), the TGI in experiment [1] was 7.26 µM; in [2] it was 8.21 µM; in experiment [3] it was 22 µM; in experiment [4], more than 100 µM; in [5] it was 23.7 µM; in [6], 4.96 µM. For the same molecule, the TGI worked out at 9.12 µM in experiment [7], 15.1 µM in [8], 15.2 µM in [9] and 6.52 µM in experiment [10].
`Cc1ccc(Nc2ncnc3sc(SCc4ccccc4)nc23)cc1`: the TGI in [1], in [2], in experiment [3], in [4], in [5] and in [6] was more than 100 µM throughout. The TGI in [7], in [8] and in [9] was more than 100 µM in each case.
On to `CC(=O)c1ccc2c(c1)CC1(C2)Cc2cc3c(cc2C1)C(=O)CC3` (stereo not given), for which the TGI was 2.32 µM in [1]; 7.83 µM in experiment [2]; 0.492 µM in experiment [3]; 17.2 µM in experiment [4]; more than 100 µM in [5]; more than 100 µM in [6]. The TGI in [7] is 0.963 µM; in [8] it was 69.3 µM; in [9], more than 83 µM; in experiment [10], 28.7 µM.
On to `Cc1[nH]n(C(=O)c2ccccc2O)c(=O)c1/C=C1\C(=O)C=Cc2ccccc21`, for which the TGI in [1] is more than 44 µM; in [2], more than 74.1 µM; in [3], more than 100 µM; in experiment [4], 11 µM; in experiment [5], more than 64.9 µM; in [6] it was 64.3 µM. Also, the TGI in [7] is more than 100 µM; in experiment [8] it was more than 100 µM; in [9] it was more than 100 µM; in experiment [10], 2.36 µM.
With `Cc1ccc(S(=O)/C=C(\NC(=O)OCc2ccccc2)C(F)(F)F)cc1` (stereo not given), the TGI in experiment [1], in experiment [2], in experiment [3], in experiment [4], in [5] and in experiment [6] was more than 100 µM each time. Moreover, the TGI in [7], in experiment [8], in experiment [9] and in [10] was more than 100 µM in each case.
For `OC1(c2ccc(Cl)cc2)c2ccccc2C2=Nc3ccccc3CN21` (stereo not given), the TGI in experiment [1] is more than 100 µM; in experiment [2] it was more than 75.4 µM; in experiment [3], more than 100 µM; in experiment [4], 98.8 µM; in experiment [5] it was more than 100 µM; in [6], more than 67.6 µM. Further, the TGI in experiment [7] is more than 84.8 µM; in experiment [8], more than 100 µM; in [9], more than 100 µM; in experiment [10] it was more than 100 µM.
As for `S=C1c2cc(Cl)ccc2NC(=NC2CCCC2)C2CSCN12` (stereo not given), the TGI in [1], in [2], in experiment [3], in experiment [4], in experiment [5] and in [6] was more than 100 µM in each case. Besides, the TGI in [7], in experiment [8], in experiment [9] and in [10] was more than 100 µM in each case.
As for `COCOc1cc(OC)ccc1C=O`, the TGI in experiment [1] is more than 100 µM; in experiment [2], more than 100 µM; in [3], 23.7 µM; in [4], 52.1 µM; in [5] it was more than 100 µM; in experiment [6], more than 100 µM. In addition, the TGI is 78.4 µM in experiment [7], more than 100 µM in experiment [8], more than 100 µM in experiment [9] and more than 100 µM in experiment [10].
`Cc1nc2c(=O)[nH]c(=O)nc-2n(CCO)c1C`: the TGI in experiment [1], in [2], in [3], in experiment [4], in experiment [5] and in experiment [6] was more than 100 µM each time. In addition, the TGI in [7], in [8], in experiment [9] and in experiment [10] was more than 100 µM throughout.
On to `c1ccc(COc2nc3ccc(C45CC6CC(CC(C6)C4)C5)cc3[nH]2)cc1`, for which the TGI is more than 100 µM in experiment [1]; more than 100 µM in experiment [2]; 97 µM in experiment [3]; more than 54.4 µM in experiment [4]; more than 100 µM in [5]; more than 100 µM in experiment [6]. The TGI was more than 100 µM in experiment [7], 34.1 µM in experiment [8], more than 72.5 µM in [9] and more than 100 µM in experiment [10].
Consider `COc1ccc2c(c1)CC[C@@H]1C2CC[C@]2(C)OC(=O)CCC12` (stereo not given in full), for which the TGI in experiment [1] was more than 100 µM; in experiment [2], more than 100 µM; in experiment [3] it was 62.1 µM; in experiment [4], 33.4 µM; in experiment [5], 30.9 µM; in [6], 38.2 µM. Also, the TGI is more than 100 µM in experiment [7], more than 100 µM in experiment [8], 97.8 µM in experiment [9] and more than 100 µM in experiment [10].
With `COc1ccc2c(c1)CCC(CN1CCN(CCOC(c3ccc(F)cc3)c3ccc(F)cc3)CC1)=C2`, the TGI in experiment [1] is more than 100 µM; in experiment [2], more than 100 µM; in experiment [3], 47.2 µM; in [4], 38.4 µM; in [5], 97.4 µM; in [6], more than 100 µM. The TGI was 27.7 µM in experiment [7], more than 100 µM in experiment [8], 44.4 µM in experiment [9] and 49 µM in [10].
For the molecule `CC(C)(C)NCC(O)COc1cccc2[nH]c(C#N)cc12` (stereo not given), the TGI in experiment [2], in [3], in [4], in [5], in [6] and in experiment [7] was more than 100 µM throughout. Further, the TGI in experiment [8], in experiment [9] and in experiment [10] was more than 100 µM throughout.
`CCCCc1cc2c(cc1O)CCC1C2CC[C@@]2(C)C1CC[C@@H]2O` (stereo not given in full): the TGI in experiment [1] was 43.6 µM; in [2] it was 32.4 µM; in experiment [3], 51.2 µM; in experiment [4], 38.5 µM; in [5] it was 36.5 µM; in [6] it was more than 100 µM. In addition, the TGI in experiment [7] came to 51.3 µM; in [8], 35.8 µM; in experiment [9] it was 33.7 µM; in [10], 29.5 µM.
As to `CC1(c2cccc(C3CCC4(C=CC3=O)OCCO4)c2)OCCO1` (stereo not given), the TGI is 25.1 µM in experiment [1]; 33.4 µM in [2]; 25.2 µM in experiment [3]; 31.5 µM in experiment [4]; 32.2 µM in experiment [5]; more than 45.9 µM in experiment [6]. The TGI is 12.5 µM in [7], 23.5 µM in experiment [8], 20.3 µM in experiment [9] and 18.1 µM in [10].
For the molecule `NC12c3c4cccc3Oc3cccc(c31)Oc1cccc(c12)O4`, the TGI in experiment [1], in [2], in experiment [3], in experiment [4], in experiment [5] and in experiment [6] was more than 50 µM each time. The TGI in experiment [7], in experiment [8] and in [10] was more than 50 µM in each case.
For `Brc1ccc(-c2ccc(-c3ccc(Br)s3)s2)s1`, the TGI in experiment [1], in experiment [2], in experiment [3], in [4], in experiment [5] and in [6] was more than 100 µM throughout. Moreover, the TGI in experiment [7], in experiment [8], in experiment [9] and in experiment [10] was more than 100 µM each time.
On to `CCCCc1ccc(N2C(=O)c3cc(C)cnc3S2(=O)=O)cc1`, for which the TGI in [1], in [2], in [3], in [4], in [5] and in experiment [6] was more than 100 µM throughout. Besides, the TGI in experiment [7] and in experiment [8] was more than 100 µM throughout.
Regarding `CC(=O)OCc1ccc(-c2nc(C#N)c(N)o2)o1`, the TGI in experiment [1], in experiment [2], in [3], in [4], in experiment [6] and in experiment [7] was more than 10 µM each time. In addition, the TGI in [8], in [9] and in experiment [10] was more than 10 µM each time.
For the molecule `COC(=O)CCCc1ccc2c(c1)CCC2`, the TGI in experiment [2], in experiment [3], in experiment [4], in experiment [5], in experiment [6] and in experiment [7] was more than 100 µM each time. In addition, the TGI in [8], in experiment [9] and in experiment [10] was more than 100 µM throughout.
As to `COc1ccccc1NC(=S)N/N=C(/c1ccccc1)c1ccccn1`, the TGI was found to be 14 µM in experiment [2]; 21.5 µM in experiment [3]; 11.3 µM in experiment [4]; 13.2 µM in experiment [5]; 21.8 µM in experiment [6]; 1.34 µM in experiment [7]. Further, the TGI in experiment [8] came out at 27.2 µM; in experiment [9], 18.3 µM; in [10] it was 9.23 µM.
